Measurements from the CheMixHub viscosity set.
± gives the uncertainty stated by the source.

Assay: xn = mol fraction of the nth substance listed
Details: 101 kPa

COCCOCCOCCOCCOC + CCCC(C)O
viscosity [mPa·s]
Details	x1 = 0.0055	x1 = 0.0094	x1 = 0.0147	x1 = 0.0256	x1 = 0.0397	x1 = 0.0606	x1 = 0.0791	x1 = 0.0929	x1 = 0.1008
298.15 K	3.301 ± 0.058	3.26 ± 0.057	3.223 ± 0.057	3.071 ± 0.054	2.91 ± 0.051	2.75 ± 0.048	2.641 ± 0.046	2.58 ± 0.045	2.55 ± 0.045
308.15 K	2.291 ± 0.041	2.274 ± 0.041	2.25 ± 0.04	2.203 ± 0.039	2.117 ± 0.038	2.046 ± 0.036	1.977 ± 0.035	1.94 ± 0.034	1.91 ± 0.034
318.15 K	1.658 ± 0.03	1.638 ± 0.03	1.631 ± 0.03	1.622 ± 0.029	1.575 ± 0.029	1.533 ± 0.028	1.524 ± 0.027	1.497 ± 0.027	1.48 ± 0.027

Clc1ccccc1 + Cc1cccc(C)c1
Details	viscosity [mPa·s]
293.15 K, x1 = 0.1317	0.622 ± 0.011
293.15 K, x1 = 0.2304	0.64 ± 0.011
293.15 K, x1 = 0.3342	0.658 ± 0.012
293.15 K, x1 = 0.4457	0.675 ± 0.012
293.15 K, x1 = 0.5734	0.692 ± 0.012
293.15 K, x1 = 0.6411	0.7 ± 0.012
293.15 K, x1 = 0.7297	0.715 ± 0.013
293.15 K, x1 = 0.8241	0.725 ± 0.013
293.15 K, x1 = 0.9089	0.737 ± 0.013
298.15 K, x1 = 0.115	0.587 ± 0.011
298.15 K, x1 = 0.2331	0.605 ± 0.011
298.15 K, x1 = 0.3319	0.621 ± 0.011
298.15 K, x1 = 0.465	0.641 ± 0.012
298.15 K, x1 = 0.565	0.655 ± 0.012
298.15 K, x1 = 0.6929	0.671 ± 0.012
298.15 K, x1 = 0.7812	0.685 ± 0.012
298.15 K, x1 = 0.9072	0.697 ± 0.012
303.15 K, x1 = 0.1144	0.55 ± 0.01
303.15 K, x1 = 0.2301	0.571 ± 0.01
303.15 K, x1 = 0.3415	0.585 ± 0.011
303.15 K, x1 = 0.4598	0.605 ± 0.011
303.15 K, x1 = 0.562	0.615 ± 0.011
303.15 K, x1 = 0.6931	0.63 ± 0.011
303.15 K, x1 = 0.8136	0.645 ± 0.012
303.15 K, x1 = 0.904	0.651 ± 0.012
308.15 K, x2 = 0.0886	0.661 ± 0.011
308.15 K, x2 = 0.2076	0.6411 ± 0.011
308.15 K, x2 = 0.3076	0.6254 ± 0.011
308.15 K, x2 = 0.4147	0.6081 ± 0.011
308.15 K, x2 = 0.5146	0.5927 ± 0.01
308.15 K, x2 = 0.6138	0.578 ± 0.01
308.15 K, x2 = 0.715	0.562 ± 0.01
308.15 K, x2 = 0.8146	0.5474 ± 0.0098
308.15 K, x2 = 0.9338	0.5309 ± 0.0096
313.15 K, x2 = 0.0886	0.6235 ± 0.011
313.15 K, x2 = 0.2076	0.6053 ± 0.011
313.15 K, x2 = 0.3076	0.5896 ± 0.01
313.15 K, x2 = 0.4147	0.5741 ± 0.01
313.15 K, x2 = 0.5146	0.5604 ± 0.01
313.15 K, x2 = 0.6138	0.5458 ± 0.0098
313.15 K, x2 = 0.715	0.5302 ± 0.0096
313.15 K, x2 = 0.8146	0.5163 ± 0.0094
313.15 K, x2 = 0.9338	0.5007 ± 0.0092

COC(C)(C)C + CCC(C)O
298.15 K
Details	viscosity [mPa·s]
x1 = 0.0999	2.16 ± 0.027
x1 = 0.1992	1.57 ± 0.02
x1 = 0.2992	1.16 ± 0.015
x1 = 0.3976	0.91 ± 0.011
x1 = 0.503	0.725 ± 0.009
x1 = 0.6017	0.609 ± 0.008
x1 = 0.6989	0.518 ± 0.007
x1 = 0.7986	0.443 ± 0.006
x1 = 0.8979	0.384 ± 0.005

Clc1ccccc1 + CC#N
viscosity [mPa·s]
Details	298.15 K	303.15 K	308.15 K
x1 = 0.1038	–	–	0.352 ± 0.0082
x1 = 0.2009	–	–	0.3871 ± 0.0088
x1 = 0.3059	–	–	0.4245 ± 0.0095
x1 = 0.3949	–	–	0.4591 ± 0.01
x1 = 0.4943	–	–	0.4944 ± 0.011
x1 = 0.5946	–	–	0.5309 ± 0.011
x1 = 0.6984	–	–	0.5671 ± 0.012
x1 = 0.7956	–	–	0.6032 ± 0.013
x1 = 0.8961	–	–	0.6352 ± 0.013
x2 = 0.082	0.728 ± 0.008	0.65 ± 0.007	–
x2 = 0.1809	0.681 ± 0.007	0.609 ± 0.007	–
x2 = 0.267	0.642 ± 0.007	0.577 ± 0.006	–
x2 = 0.3853	0.587 ± 0.006	0.529 ± 0.006	–
x2 = 0.506	0.539 ± 0.006	0.484 ± 0.005	–
x2 = 0.5957	0.501 ± 0.005	0.459 ± 0.005	–
x2 = 0.6925	0.46 ± 0.005	0.418 ± 0.005	–
x2 = 0.8175	0.406 ± 0.005	0.373 ± 0.004	–
x2 = 0.9171	0.367 ± 0.004	0.337 ± 0.004	–
